Here are results for 22 compounds from ChEMBL document CHEMBL1148751, “Optimization of the indenone ring of indenoisoquinoline topoisomerase I inhibitors” (2007).

Common to all, as to assay type: functional
Assay [1] has as its system SN12C. The experiment in a line: Cytotoxicity against human SN12C cells.
Assay [2] has as its system HOP-62. The experiment in a line: Cytotoxicity against human HOP62 cells.
Assay [3] has as its system MDA-MB-435. The experiment in a line: Cytotoxicity against human MDA-MB-435 cells.
Assay [4] relates to DU-145. Description: Cytotoxicity against human DU145 cells.
The subject of assay [5] is SF-539. Description: Cytotoxicity against human SF539 cells.
The test system of assay [6] is UACC-62. The experiment in a line: Cytotoxicity against human UACC62 cells.
In assay [7] the test system is OVCAR-3. The experiment in a line: Cytotoxicity against human OVCAR-3 cells.
Assay [8] relates to HCT-116. Description: Cytotoxicity against human HCT116 cells.

A word on the GI50: it is the concentration giving 50% growth inhibition. Regarding `CCc1ccc2c(c1)C(=O)c1c-2n(CCCN)c(=O)c2cc(OC)c(OC)cc12`, the GI50 was 1.74 µM in assay [1]; 1.82 µM in assay [2]; 2 µM in assay [3]; 1.62 µM in assay [4]; 1.62 µM in assay [5]; 1.82 µM in assay [6]. In assay [7], the GI50 came out at 1.51 µM.

Turning to `O=C1c2cc(F)ccc2-c2c1c1ccc([N+](=O)[O-])cc1c(=O)n2CCCBr`, the 50% growth inhibitory concentration (GI50) amounted to 27.5 µM in assay [1]; 2.29 µM in assay [2]; 37.2 µM in assay [3]; 3.39 µM in assay [4]; 2.29 µM in assay [6]; 46.8 µM in assay [7]. The same compound had a GI50 in assay [8] of 7.24 µM.

For the compound `CSc1ccc2c(c1)C(=O)c1c-2n(CCCBr)c(=O)c2cc([N+](=O)[O-])ccc12`, the GI50 in assay [1] is 0.891 µM; in assay [2], 1.05 µM; in assay [3], 30.9 µM; in assay [4] it was 3.89 µM; in assay [5], 4.57 µM; in assay [6], 3.09 µM. The GI50 in assay [7] was above 100 µM; in assay [8], 2.24 µM.

For the compound `CCOc1ccc2c(c1)C(=O)c1c-2n(CCCBr)c(=O)c2cc([N+](=O)[O-])ccc12`, the concentration for 50% growth inhibition (GI50) in assay [1] was 11.7 µM; in assay [2], 5.75 µM; in assay [3] it was 30.9 µM; in assay [4], 4.27 µM; in assay [5], 5.62 µM; in assay [6] it was 5.75 µM. Besides, the GI50 came to 23.4 µM in assay [7] and 6.03 µM in assay [8].

With `COc1cc2c3c(n(CCCN=[N+]=[N-])c(=O)c2cc1OC)-c1ccc(N(C)C)cc1C3=O`, the GI50 in assay [1], in assay [2], in assay [3], in assay [4], in assay [5] and in assay [6] was above 100 µM in each case. Moreover, the GI50 in assay [7] is above 100 µM.

Regarding `CS(=O)(=O)c1ccc2c(c1)C(=O)c1c-2n(CCCBr)c(=O)c2cc([N+](=O)[O-])ccc12`, the 50% growth inhibitory concentration (GI50) in assay [1] worked out at 6.92 µM; in assay [2], 8.13 µM; in assay [3] it was 83.2 µM; in assay [4], 6.31 µM; in assay [5], 24 µM; in assay [6], 4.27 µM. The GI50 was found to be 28.8 µM in assay [7] and 7.41 µM in assay [8].

Take `NCCCn1c2c(c3ccc([N+](=O)[O-])cc3c1=O)C(=O)c1cc(Cl)ccc1-2`: the GI50 in assay [1], in assay [2], in assay [4], in assay [5], in assay [6] and in assay [8] was below 0.01 µM throughout.

As for `COc1cc2c3c(n(CCCN=[N+]=[N-])c(=O)c2cc1OC)-c1ccc(NC(C)=O)cc1C3=O`, the 50% growth inhibitory concentration (GI50) in assay [1], in assay [2], in assay [3], in assay [4], in assay [5] and in assay [6] was 50.1 µM each time. Moreover, the GI50 in assay [7] and in assay [8] was 50.1 µM throughout.

For `COc1ccc2c(c1)C(=O)c1c-2n(CCCCl)c(=O)c2cc([N+](=O)[O-])ccc12`, the GI50 in assay [1] is below 0.01 µM; in assay [2], 0.295 µM; in assay [3] it was 3.24 µM; in assay [4], 0.036 µM; in assay [5], 0.027 µM; in assay [6] it was below 0.01 µM. Also, the GI50 in assay [7] was found to be 3.39 µM; in assay [8], 0.794 µM.

With `[N-]=[N+]=NCCCn1c2c(c3ccc([N+](=O)[O-])cc3c1=O)C(=O)c1cc(Br)ccc1-2`, the GI50 in assay [1] is above 100 µM; in assay [2], 56.2 µM; in assay [3], above 100 µM; in assay [4], 14.8 µM; in assay [5], above 100 µM; in assay [6], above 100 µM. In addition, the values for the concentration for 50% growth inhibition (GI50) in assay [7] and in assay [8] were above 100 µM and 3.02 µM, respectively.

With `COc1cc2c3c(n(CCCN)c(=O)c2cc1OC)-c1ccc(N)cc1C3=O`, the GI50 came out at 2.57 µM in assay [1]; 4.17 µM in assay [3]; 2.4 µM in assay [4]; 0.316 µM in assay [5]; 1.38 µM in assay [6]; 1.82 µM in assay [7]. For the same compound, the GI50 in assay [8] stood at 0.263 µM.

Turning to `[N-]=[N+]=NCCCn1c2c(c3ccc([N+](=O)[O-])cc3c1=O)C(=O)c1ccccc1-2`, in assay [6], the GI50 was 29.5 µM.

With `O=C1c2cc(Br)ccc2-c2c1c1ccc([N+](=O)[O-])cc1c(=O)n2CCCCl`, the GI50 in assay [1] stood at 0.019 µM; in assay [2], 3.63 µM; in assay [3], 0.282 µM; in assay [4], 0.214 µM; in assay [5], 0.661 µM; in assay [7], 0.575 µM. In assay [8], this compound showed a concentration for 50% growth inhibition (GI50) of 3.72 µM.

Consider `COc1ccc2c(c1)C(=O)c1c-2n(CCCN)c(=O)c2cc([N+](=O)[O-])ccc12`, for which the GI50 in assay [1], in assay [2], in assay [5], in assay [6] and in assay [8] was below 0.01 µM throughout.

`COc1ccc2c(c1)C(=O)c1c-2n(CCCN=[N+]=[N-])c(=O)c2cc([N+](=O)[O-])ccc12`: the GI50 was below 0.001 µM in assay [2]; 0.251 µM in assay [3]; below 0.001 µM in assay [4]; below 0.001 µM in assay [5]; 0.155 µM in assay [7]; below 0.001 µM in assay [8].

Take `COc1cc2c3c(n(CCCN)c(=O)c2cc1OC)-c1ccc(C#N)cc1C3=O`: the GI50 in assay [1] amounted to 16.6 µM; in assay [2], 3.98 µM; in assay [3] it was 18.6 µM; in assay [4], 12.3 µM; in assay [6] it was 17 µM; in assay [7], 19.1 µM. Moreover, the 50% growth inhibitory concentration (GI50) in assay [8] was 15.9 µM.

For `COc1cc2c3c(n(C)c(=O)c2cc1OC)-c1cc2c(cc1C3=O)OCO2`, the GI50 in assay [1] is 68 µM; in assay [2], 1.3 µM; in assay [3] it was 96 µM; in assay [4], 37 µM; in assay [6], 4.2 µM; in assay [8], 35 µM.

Consider `COC(=O)c1ccc2c(c1)C(=O)c1c-2n(CCCCl)c(=O)c2cc(OC)c(OC)cc12`, for which the GI50 in assay [1], in assay [2], in assay [3], in assay [4], in assay [6] and in assay [7] was above 100 µM in each case. The same compound gave a GI50 in assay [8] above 100 µM.

For the compound `Cc1ccc2c(c1)C(=O)c1c-2n(CCCN)c(=O)c2cc([N+](=O)[O-])ccc12`, the 50% growth inhibitory concentration (GI50) in assay [1] is 0.229 µM; in assay [2], 0.191 µM; in assay [3], 0.316 µM; in assay [4] it was 0.115 µM; in assay [5], 0.603 µM; in assay [7], 0.324 µM. For the same compound, it took 0.229 µM to inhibit growth in assay [8] by half (GI50).

With `CCc1ccc2c(c1)C(=O)c1c-2n(CCCN=[N+]=[N-])c(=O)c2cc(OC)c(OC)cc12`, the GI50 in assay [1] is above 100 µM; in assay [2] it was 56.2 µM; in assay [3], above 100 µM; in assay [4] it was above 100 µM; in assay [5], 57.5 µM; in assay [6], 91.2 µM. For the same compound, in assay [7], the GI50 was above 100 µM.

Take `NCCCn1c2c(c3ccc([N+](=O)[O-])cc3c1=O)C(=O)c1ccccc1-2`: the figures for the concentration for 50% growth inhibition (GI50) in assay [1], in assay [4] and in assay [8] were 0.009 µM, 0.014 µM and below 0.005 µM, respectively.

Regarding `O=C1c2ccccc2-c2c1c1ccc([N+](=O)[O-])cc1c(=O)n2CCCCl`, the GI50 in assay [2] came out at 43.6 µM.
